Laboratory results published in ChEMBL document CHEMBL1141190, “Synthesis and structure-activity relationships of 1,2,4-triazoles as a novel class of potent tubulin polymerization inhibitors” (Bioorg Med Chem Lett, 2005).

Key:
Tubulin (Bos taurus) [1] = biological target: T1, Tubulin (Bos taurus) (UniProt Q6B856+Q862L2+Q862F3); settings: at 10 µM
Description: Inhibition of tubulin polymerization in bovine brain at 10 uM

A-431 [2] = assay: Cell cycle arrest in A431 cells by accumulation at G2/M phase cell; format: functional, cell-based; settings: Homo sapiens
A-431 [3] = assay: Cell cycle arrest in A431 cells by accumulation at G2/M phase cell at 0.1uM; format: functional; settings: Homo sapiens
Tubulin (Bos taurus) [4] = biological target: T1, Tubulin (Bos taurus); assay: Inhibition of tubulin polymerization in bovine brain at 3.33 uM
Tubulin = assay: Displacement of [3H]colchicine from tubulin; format: protein-complex assay, Homo sapiens
HCT-116 = assay: Antiproliferative activity against HCT116 tumor cells by sulforhodamine B assay; format: functional; settings: Homo sapiens
NCI-H460 = assay: Antiproliferative activity against NCI-H460 tumor cells by sulforhodamine B assay; format: functional; settings: Homo sapiens
A498 = assay: Antiproliferative activity against A498 tumor cells by sulforhodamine B assay; format: functional; settings: Homo sapiens
SK-OV-3 = assay: Antiproliferative activity against SKOV3 tumor cells by sulforhodamine B assay; format: functional; settings: Homo sapiens
A-431 [5] = assay: Antiproliferative activity against A431 tumor cells by sulforhodamine B assay; format: functional; settings: Homo sapiens
LoVo = assay: Antiproliferative activity against LoVo tumor cells by sulforhodamine B assay; format: functional; settings: Homo sapiens
DU-145 = assay: Antiproliferative activity against DU145 tumor cells by sulforhodamine B assay; format: functional; settings: Homo sapiens
DLD-1 = assay: Antiproliferative activity against DLD1 tumor cells by sulforhodamine B assay; format: functional; settings: Homo sapiens
SNB-19 = assay: Antiproliferative activity against SNB19 tumor cells by sulforhodamine B assay; format: functional; settings: Homo sapiens
NCI/ADR-RES = assay: Antiproliferative activity against NCI/ADR-RES tumor cells by sulforhodamine B assay; format: functional; settings: Homo sapiens

| inhibition (Tubulin (Bos taurus) [1]) [%] | EC50 (A-431 [2]) [nM] | inhibition (Tubulin (Bos taurus) [4]) [%] | SMILES | inhibition at 0.1 µM (A-431 [3]) [%] | other results |
| --- | --- | --- | --- | --- | --- |
| 23 | – | – | c1cncc(CCNc2ncccc2-c2n[nH]c(Nc3ccc4c(c3)OCCO4)n2)c1 | – | – |
| 45 | – | – | COc1cc(Nc2n[nH]c(-c3cccnc3Nc3cc(OC)cc(OC)c3)n2)cc(OC)c1 | – | – |
| – | 13 | 96 | COc1cc(OC)cc(Oc2ccncc2-c2n[nH]c(Nc3ccc4c(c3)OCCO4)n2)c1 | 86 | – |
| 100 | 10 | 83 | COc1cc(OC)cc(Oc2ncccc2-c2n[nH]c(Nc3cccc(O)c3)n2)c1 | 86 | – |
| 73 | 83 | – | COc1ccc(Nc2n[nH]c(-c3cccnc3Nc3cc(OC)cc(OC)c3)n2)cc1 | 68 | – |
| – | 11 | 53 | CN(C)c1cccc(Oc2ncccc2-c2n[nH]c(Nc3ccc4c(c3)OCO4)n2)c1 | 63 | – |
| 87 | 62 | – | COc1cc(Nc2ncccc2-c2n[nH]c(Nc3ccc4c(c3)OCO4)n2)cc(OC)c1 | 85 | Ki (Tubulin): 60 nM |
| 95 | 117 | – | COc1cc(Nc2ncccc2-c2n[nH]c(Nc3ccc4c(c3)OCCO4)n2)cc(OC)c1 | 83 | – |
| 84 | – | – | Fc1ccc(CNc2ncccc2-c2n[nH]c(Nc3ccc4c(c3)OCCO4)n2)cc1F | 32 | – |
| 15 | – | – | COc1cc(Nc2ncccc2-c2nc(-c3cccc(OC)c3)n[nH]2)cc(OC)c1 | – | – |
| – | 12 | 80 | COc1cc(O)cc(Oc2ncccc2-c2n[nH]c(Nc3ccc4c(c3)OCO4)n2)c1 | 83 | – |
| 100 | 120 | – | COc1cccc(CNc2n[nH]c(-c3cccnc3Nc3cc(OC)cc(OC)c3)n2)c1 | 71 | – |
| 100 | 5.3 | – | COc1cc(Nc2ccncc2-c2n[nH]c(Nc3ccc4c(c3)OCCO4)n2)cc(OC)c1 | 77 | – |
| 44 | – | – | COc1cc(Nc2ncccc2-c2n[nH]c(Nc3cc(Cl)cc(Cl)c3)n2)cc(OC)c1 | – | – |
| 28 | – | – | Fc1cc(F)cc(Nc2ncccc2-c2n[nH]c(Nc3ccc4c(c3)OCO4)n2)c1 | – | – |
| – | – | 5 | COc1cc(OC)cc(Oc2ncccc2-c2nc(N(C)c3cccc(OC)c3)n[nH]2)c1 | – | – |
| 100 | – | – | COc1cccc(CNc2n[nH]c(-c3cccnc3Oc3cc(OC)cc(OC)c3)n2)c1 | 32 | – |
| 100 | 21 | 100 | COc1cccc(Nc2n[nH]c(-c3cccnc3Oc3cc(OC)cc(OC)c3)n2)c1 | 83 | Ki (Tubulin): 50 nM |
| 88 | – | – | COc1ccc(CNc2n[nH]c(-c3cccnc3Nc3cc(OC)cc(OC)c3)n2)cc1 | 22 | – |
| 84 | 66 | – | c1cnc(NCc2ccncc2)c(-c2n[nH]c(Nc3ccc4c(c3)OCO4)n2)c1 | 70 | – |
| 9 | – | – | COc1cccc(Cc2n[nH]c(-c3cccnc3Nc3cc(OC)cc(OC)c3)n2)c1 | – | – |

| inhibition (Tubulin (Bos taurus) [1]) [%] | EC50 (A-431 [2]) [nM] | inhibition (Tubulin (Bos taurus) [4]) [%] | SMILES | inhibition at 0.1 µM (A-431 [3]) [%] | other results |
| --- | --- | --- | --- | --- | --- |
| – | – | 30 | COc1cc(OC)cc(Oc2ncccc2-c2nnc(Nc3ccc4c(c3)OCCO4)n2C)c1 | – | – |
| – | – | – | COc1cc(Nc2ncccc2-c2nnc(Nc3ccc4c(c3)OCCO4)[nH]2)cc(OC)c1 | – | Ki (Tubulin): 160 nM |
| – | – | 8 | COc1ccc(C(=O)Nc2n[nH]c(-c3cccnc3Oc3cc(OC)cc(OC)c3)n2)cc1 | – | – |
| 100 | 9.4 | – | COc1cc(Nc2ccncc2-c2n[nH]c(Nc3ccc4c(c3)OCO4)n2)cc(OC)c1 | 84 | – |
| – | 16 | 89 | COc1cc(Oc2ncccc2-c2n[nH]c(Nc3ccc4c(c3)OCO4)n2)cc(OC)c1OC | 86 | – |
| 97 | – | 57 | COc1cc(OC)cc(Oc2ncccc2-c2n[nH]c(Nc3ccc(C#N)cc3)n2)c1 | 27 | – |
| – | 66 | 49 | COc1cc(OC)cc(Oc2ncccc2-c2n[nH]c(Nc3cccnc3)n2)c1 | 61 | – |
| 89 | 17 | – | COc1cc(Nc2nccnc2-c2n[nH]c(Nc3ccc4c(c3)OCO4)n2)cc(OC)c1 | 85 | – |
| – | 10 | 52 | Cc1cc(C)cc(Oc2ncccc2-c2n[nH]c(Nc3ccc4c(c3)OCO4)n2)c1 | 83 | – |
| 4 | – | – | COc1cccc(Nc2n[nH]c(-c3cccnc3Nc3ccccc3)n2)c1 | – | – |
| – | 240 | 64 | COc1cc(Nc2ncccc2-c2nnc(Nc3ccc4c(c3)OCCO4)n2C)cc(OC)c1 | 25 | – |
| 35 | – | – | COc1cc(Nc2ncccc2-c2n[nH]c(Nc3ccc(N(C)C)cc3)n2)cc(OC)c1 | – | – |
| 98 | 31 | 76 | COc1cc(OC)cc(Oc2ncccc2-c2n[nH]c(Nc3ccc(N(C)C)cc3)n2)c1 | 86 | – |
| – | – | 43 | Fc1cccc(Oc2ncccc2-c2n[nH]c(Nc3ccc4c(c3)OCO4)n2)c1 | 37 | – |
| 100 | 3.6 | 88 | COc1cc(OC)cc(Oc2ncccc2-c2n[nH]c(Nc3ccc4c(c3)OCCO4)n2)c1 | 89 | Ki (Tubulin): 20 nM |
| – | – | 43 | c1ccc(Oc2ncccc2-c2nc(Nc3ccc4c(c3)OCO4)n[nH]2)nc1 | 21 | – |
| 87 | – | 51 | COc1cc(OC)cc(Oc2ncccc2-c2n[nH]c(Nc3cc(F)cc(F)c3)n2)c1 | 27 | – |
| 84 | – | – | Fc1ccc(CNc2ncccc2-c2n[nH]c(Nc3ccc4c(c3)OCO4)n2)cc1F | 23 | – |
| – | 43.5 | – | COc1cc2c(c(OC)c1OC)-c1ccc(O)cc1[C@@H](N)CC2 [COLCHINOL] | – | Ki (Tubulin): 1850 nM |
| 0 | – | – | COc1cccc(Nc2n[nH]c(-c3cccnc3Nc3cc(F)cc(F)c3)n2)c1 | – | – |
| 34 | – | – | COc1cc(Nc2ncccc2-c2n[nH]c(Nc3ccc(C#N)cc3)n2)cc(OC)c1 | – | – |

| inhibition (Tubulin (Bos taurus) [1]) [%] | EC50 (A-431 [2]) [nM] | inhibition (Tubulin (Bos taurus) [4]) [%] | SMILES | inhibition at 0.1 µM (A-431 [3]) [%] | other results |
| --- | --- | --- | --- | --- | --- |
| 98 | 7.2 | 91 | COc1cc(OC)cc(Oc2ncccc2-c2n[nH]c(Nc3ccc4c(c3)OCO4)n2)c1 | 83 | Ki (Tubulin): 10 nM |
| 33 | > 10000 | – | COc1cc(Nc2ncccc2-c2nc(Nc3cc(OC)ccc3OC)n[nH]2)cc(OC)c1 | 20 | – |
| 9 | – | – | COc1cccc(Nc2n[nH]c(-c3cccnc3Nc3cccc(OC)c3)n2)c1 | – | – |
| 76 | 130 | – | COc1cc(Nc2ncccc2-c2nc(Nc3ccc4c(c3)OCCO4)n(C)n2)cc(OC)c1 | 26 | – |
| – | – | 90 | COc1cc(OC)cc(Oc2ncccc2-c2n[nH]c(NCc3ccc4c(c3)OCO4)n2)c1 | 24 | – |
| – | 210 | 59 | COc1cc(OC)cc(Oc2cnccc2-c2n[nH]c(Nc3ccc4c(c3)OCCO4)n2)c1 | 40 | – |
| 47 | – | – | COc1cc(Nc2ncccc2-c2nc(Nc3ccc(OC)cc3OC)n[nH]2)cc(OC)c1 | 17 | – |
| – | – | 28 | COc1cccc(CN(C)c2n[nH]c(-c3cccnc3Oc3cc(OC)cc(OC)c3)n2)c1 | – | – |
| – | 44 | 69 | COc1cc(OC)cc(Oc2ncncc2-c2n[nH]c(Nc3ccc4c(c3)OCCO4)n2)c1 | 83 | – |
| – | – | 97 | Fc1cc(F)cc(Oc2ncccc2-c2n[nH]c(Nc3ccc4c(c3)OCO4)n2)c1 | 23 | – |
| 21 | – | – | O=C1CCCN1CCCNc1ncccc1-c1n[nH]c(Nc2ccc3c(c2)OCCO3)n1 | – | – |
| 5 | > 10000 | – | COc1cc(Nc2ncccc2-c2n[nH]c(Nc3ccccc3)n2)cc(OC)c1 | 22 | – |
| 68 | – | – | COc1ccc(CNc2ncccc2-c2n[nH]c(Nc3ccc4c(c3)OCCO4)n2)cc1 | 30 | – |
| 86 | – | – | COc1ccc(CNc2n[nH]c(-c3cccnc3Oc3cc(OC)cc(OC)c3)n2)cc1 | 28 | – |
| 68 | – | – | COc1cc(OC)cc(Oc2ncccc2-c2n[nH]c(N(C)c3ccncc3)n2)c1 | 44 | – |
| 100 | 53 | – | COc1cc(Nc2ncncc2-c2n[nH]c(Nc3ccc4c(c3)OCCO4)n2)cc(OC)c1 | 68 | – |
| 80 | 90 | – | COc1cccc(Nc2n[nH]c(-c3cccnc3Nc3cc(OC)cc(OC)c3)n2)c1 | 72 | GI50 (HCT-116): 400 nM; GI50 (NCI-H460): 10 nM; GI50 (A498): 60 nM; GI50 (SK-OV-3): 220 nM; GI50 (A-431 [5]): 50 nM; GI50 (LoVo): 20 nM; GI50 (DU-145): 20 nM; GI50 (DLD-1): 70 nM; GI50 (SNB-19): 150 nM; GI50 (NCI/ADR-RES): 150 nM |
| – | – | – | COc1ccc(/C=C\c2cc(OC)c(OC)c(OC)c2)cc1O [COMBRETASTATIN A4] | 88 | – |
| 99 | 23 | 73 | COc1cc(Nc2n[nH]c(-c3cccnc3Oc3cc(OC)cc(OC)c3)n2)cc(OC)c1 | 87 | – |
| – | – | – | COc1cccc(Nc2nnc(-c3cccnc3Nc3cc(OC)cc(OC)c3)[nH]2)c1 | – | Ki (Tubulin): 100 nM |
| – | 6.6 | 65 | COc1cc(OC)cc(Oc2ccccc2-c2n[nH]c(Nc3ccc4c(c3)OCCO4)n2)c1 | 82 | – |

| SMILES | inhibition (Tubulin (Bos taurus) [1]) [%] | EC50 (A-431 [2]) [nM] | inhibition (Tubulin (Bos taurus) [4]) [%] | inhibition at 0.1 µM (A-431 [3]) [%] | other results |
| --- | --- | --- | --- | --- | --- |
| COc1cc2c(c(OC)c1OC)-c1ccc(OC)c(=O)cc1[C@@H](NC(C)=O)CC2 [COLCHICINE] | – | 2.8 | – | 80 | – |
